Among the test systems are SF-295; SNB-19; SF-539; HCT-15; Malme-3M; M14; CAKI-1; HCC 2998; SK-OV-3; IGROV-1; KM-20L2; LOX IMVI; HL-60; NCI-H23; DU-145; MDA-MB-231; Hs-578T; PC-3.
Holding throughout (assay): NCI-60 cell line screen, 48 h

The text below walks through data of ChEMBL document CHEMBL1201862, “PubChem BioAssay data set” (2004).

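Method: 48-hour compound exposure of cells in 96-well plates, five concentrations, linear interpolation of endpoints. Here, GI50 denotes the concentration required for 50% inhibition of growth.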 Active and inactive are the calls of the source. No stated cut-off is given here; in the data, active = GI50 up to about 1.1 µM and inactive = higher.

Regarding `O=CN/C=C\c1cc(O)ccc1O`, the GI50 in the assay on SF-295 is 28.4 µM (inactive); with SNB-19, > 100 µM (inactive); in the assay on SF-539, 10.7 µM (inactive); with HCT-15 it was 9.31 µM; in the assay on Malme-3M it was 13.8 µM (inactive); with M14 it was 13.5 µM (inactive). In addition, the GI50 in the assay on CAKI-1 was 12.7 µM (inactive); in the assay on HCC 2998 it was > 100 µM (inactive); in the assay on SK-OV-3, > 100 µM (inactive); in the assay on IGROV-1, > 40.1 µM (inactive); in the assay with KM-20L2, 14.8 µM (inactive); in the assay on LOX IMVI it was 7.23 µM (inactive). The GI50 is 10.4 µM (inactive) in the assay with HL-60 and 15.8 µM (inactive) with NCI-H23.

As for `N#CC(C#N)=Cc1ccc(CP(=O)(O)O)cc1`, the GI50 with SF-295 was > 100 µM (inactive); with SNB-19 it was > 100 µM (inactive); with SF-539, > 100 µM (inactive); in the assay with HCT-15, > 100 µM; with Malme-3M it was > 100 µM (inactive); with M14, > 100 µM (inactive). Besides, the GI50 in the assay on CAKI-1, with HCC 2998, in the assay with SK-OV-3, in the assay with IGROV-1, in the assay with KM-20L2 and in the assay with LOX IMVI was > 100 µM (inactive) in each case. Further, the GI50 in the assay with HL-60 is 70.6 µM (inactive); in the assay on NCI-H23, > 100 µM (inactive).

As to `CC(=O)C(CN(CC(C)C)CC(C)C)C(c1ccccc1)c1c(O)c2ccccc2oc1=O` (stereo not given), the GI50 in the assay with SF-295 is > 100 µM (inactive); with SNB-19, > 100 µM (inactive); with SF-539, > 100 µM (inactive); in the assay with HCT-15, > 100 µM; in the assay on Malme-3M, > 100 µM (inactive); in the assay with M14, > 100 µM (inactive). The GI50 in the assay on CAKI-1, with HCC 2998, with SK-OV-3, in the assay with IGROV-1, in the assay on KM-20L2 and with LOX IMVI was > 100 µM (inactive) in each case. The GI50 in the assay on HL-60 and with NCI-H23 was > 100 µM (inactive) throughout.

`BrC(Br)([P+](c1ccccc1)(c1ccccc1)c1ccccc1)[P+](c1ccccc1)(c1ccccc1)c1ccccc1`: the GI50 was 29.4 µM (inactive) with SF-295; 13.6 µM (inactive) in the assay with SF-539; 20.4 µM in the assay with HCT-15; 12.5 µM (inactive) with Malme-3M; 18.5 µM (inactive) with M14; 7.98 µM (inactive) in the assay with CAKI-1. The GI50 in the assay on HCC 2998 is 17.4 µM (inactive); in the assay with SK-OV-3 it was 38.5 µM (inactive); with IGROV-1 it was 18.1 µM (inactive); in the assay on KM-20L2 it was 24.9 µM (inactive); in the assay on LOX IMVI it was 13.2 µM (inactive); in the assay with HL-60, 7.94 µM (inactive). The GI50 in the assay with NCI-H23 was 16.8 µM (inactive).

For the compound `O=C/C(=C(/Cl)c1ccc(O)cc1)c1ccccc1`, the GI50 with SF-295 is 33.3 µM (inactive); in the assay on SNB-19, 41.2 µM (inactive); in the assay on SF-539 it was 28.6 µM (inactive); in the assay with HCT-15 it was 16.1 µM; in the assay on Malme-3M, 23.7 µM (inactive); in the assay on DU-145, 62.5 µM (inactive). The GI50 in the assay on M14 was 27.8 µM (inactive); in the assay with CAKI-1, 27.4 µM (inactive); with HCC 2998, 71.9 µM (inactive); with SK-OV-3, 26.5 µM (inactive); in the assay with IGROV-1, 26 µM (inactive); in the assay on KM-20L2, 31 µM (inactive). In addition, the values for the GI50 in the assay with LOX IMVI, with HL-60 and in the assay with NCI-H23 were 21.6 µM (inactive), 38.5 µM (inactive) and 24.4 µM (inactive), respectively.

In the case of `CC1=C(C(=O)NNS(=O)(=O)c2ccc(C)cc2)CC(C(=O)NNS(=O)(=O)c2ccc(C)cc2)=C(C)N1`, the GI50 in the assay with SF-295 is > 100 µM (inactive); in the assay with SNB-19, > 100 µM (inactive); with SF-539, > 100 µM (inactive); in the assay with HCT-15 it was > 100 µM; in the assay with Malme-3M, > 100 µM (inactive); with M14, > 100 µM (inactive). Moreover, the GI50 in the assay on CAKI-1 is 94.2 µM (inactive); with HCC 2998, > 100 µM (inactive); in the assay with SK-OV-3 it was > 100 µM (inactive); in the assay with IGROV-1, > 100 µM (inactive); with KM-20L2, > 100 µM (inactive); in the assay on LOX IMVI, > 100 µM (inactive). In addition, the GI50 is 55.1 µM (inactive) in the assay with HL-60 and > 100 µM (inactive) in the assay with NCI-H23.

Turning to `O=S1(=O)C[C@H](O)[C@H](O)CS1`, the GI50 with SF-295, with SNB-19, in the assay with SF-539, with Malme-3M, with M14 and with CAKI-1 was > 100 µM (inactive) in each case. For the same compound, the GI50 with HCC 2998, with SK-OV-3, in the assay on IGROV-1, in the assay with KM-20L2, in the assay on LOX IMVI and with HL-60 was > 100 µM (inactive) throughout. In addition, in the assay on NCI-H23, the GI50 was > 100 µM (inactive).

As for `O=C(c1ccccc1)c1c(C(=O)c2ccccc2)c(-c2ccccc2)c2c(-c3ccccc3)sc(-c3ccccc3)c2c1-c1ccccc1`, the GI50 in the assay with SF-295 is > 100 µM (inactive); in the assay with SNB-19, > 100 µM (inactive); in the assay with SF-539 it was > 100 µM (inactive); in the assay on HCT-15, > 100 µM; with Malme-3M, > 100 µM (inactive); with M14, > 100 µM (inactive). The GI50 with CAKI-1, with HCC 2998, with SK-OV-3, in the assay on IGROV-1, in the assay with KM-20L2 and in the assay with LOX IMVI was > 100 µM (inactive) in each case. The GI50 in the assay on HL-60 and in the assay with NCI-H23 was > 100 µM (inactive) throughout.

As to `CN1CCc2c1nc(-c1cccnc1)c1c2N(C)CC1`, the GI50 in the assay with SF-295 is > 100 µM (inactive); in the assay with SNB-19, > 100 µM (inactive); with SF-539, > 100 µM (inactive); in the assay with HCT-15, > 100 µM; in the assay with Malme-3M, > 100 µM (inactive); in the assay on M14, > 100 µM (inactive). For the same compound, the GI50 is > 100 µM (inactive) with CAKI-1; > 100 µM (inactive) with HCC 2998; > 100 µM (inactive) with SK-OV-3; > 100 µM (inactive) in the assay on IGROV-1; 97.1 µM (inactive) in the assay with KM-20L2; > 100 µM (inactive) in the assay on LOX IMVI. In addition, the GI50 in the assay on HL-60 and with NCI-H23 was > 100 µM (inactive) throughout.

With `CC(C)C1=Cc2ccc3c(c2C(=O)C1=O)CCCC3(C)C` [MILTIRONE], the GI50 in the assay on SF-295 is 17.2 µM (inactive); in the assay with SNB-19 it was 17.2 µM (inactive); in the assay on SF-539 it was 5.33 µM (inactive); in the assay on HCT-15 it was 1.99 µM; in the assay on Malme-3M, 4.74 µM (inactive); in the assay with M14, 5.46 µM (inactive). The GI50 with CAKI-1 was 2.47 µM (inactive); with HCC 2998, 18.4 µM (inactive); in the assay on SK-OV-3, 18.1 µM (inactive); in the assay on IGROV-1, 5.93 µM (inactive); in the assay on KM-20L2, 20.3 µM (inactive); in the assay with LOX IMVI, 12.2 µM (inactive). For the same compound, the figures for the GI50 in the assay with HL-60 and in the assay with NCI-H23 were 2.37 µM (inactive) and 13.7 µM (inactive), respectively.

`CC1[C@@]2(CCC(C)(C)O2)O[C@@H]2C=C3C4CCC5Cc6nc7c(nc6C[C@@]5(C)C4C[C@H](O)[C@@]3(C)[C@]12O)CC1CCC2C3=C[C@H]4O[C@@]5(O[C@@](C)(CO)C[C@@H]5O)C(C)[C@@]4(O)[C@]3(C)[C@@H](O)CC2[C@]1(C)C7` (stereo not given in full): the GI50 in the assay on SF-295 is 0.00807 µM (active); with SNB-19, 0.224 µM (active); in the assay with SF-539 it was 0.00847 µM (active); in the assay with HCT-15, 0.169 µM; in the assay on Malme-3M, 0.175 µM (active); in the assay with M14 it was 0.04 µM (active). Further, the GI50 is 0.111 µM (active) with CAKI-1; 0.624 µM (active) with HCC 2998; 0.0863 µM (active) in the assay on SK-OV-3; 0.248 µM (active) with IGROV-1; 0.0509 µM (active) in the assay with KM-20L2; 0.0526 µM (active) in the assay on LOX IMVI. Besides, the results for the GI50 with HL-60 and with NCI-H23 were 0.0307 µM (active) and 0.118 µM (active), respectively.

Take `Cc1ccc2c(ccc(/C=C/c3ccc(O)c4ncccc34)[n+]2C)c1`: the GI50 in the assay on MDA-MB-231 is > 33.2 µM (inactive); in the assay with SF-295 it was 13.8 µM (inactive); in the assay with SNB-19, 12.9 µM (inactive); in the assay on SF-539 it was 7.18 µM (inactive); with HCT-15, 16.1 µM; in the assay with Malme-3M, 11.1 µM (inactive). Besides, the GI50 was > 100 µM (inactive) with Hs-578T; > 32.1 µM (inactive) with DU-145; 13.6 µM (inactive) with M14; > 25.3 µM (inactive) in the assay with PC-3; 5.55 µM (inactive) in the assay on CAKI-1; 3.56 µM (inactive) with HCC 2998. The GI50 was 15.4 µM (inactive) with SK-OV-3; 15.8 µM (inactive) in the assay on IGROV-1; 4.85 µM (inactive) in the assay with KM-20L2; 2.96 µM (inactive) in the assay with LOX IMVI; 19.5 µM (inactive) in the assay on HL-60; 11 µM (inactive) in the assay on NCI-H23.

For the compound `CC(C)(C)[C@H]1CO[C@]2(C)[C@@H]3C[C@@H]3C(=O)N12`, the GI50 in the assay on SF-295 was > 100 µM (inactive); with SNB-19, > 100 µM (inactive); in the assay with SF-539, > 100 µM (inactive); in the assay with HCT-15 it was > 100 µM; in the assay on Malme-3M it was > 100 µM (inactive); with M14 it was > 100 µM (inactive). Also, the GI50 in the assay with CAKI-1, in the assay with HCC 2998, with SK-OV-3, in the assay with IGROV-1, in the assay on KM-20L2 and with LOX IMVI was > 100 µM (inactive) in each case. For the same compound, the GI50 in the assay on HL-60 and in the assay on NCI-H23 was > 100 µM (inactive) each time.
